“Also recorded” adds a separate entry of the source.
Columns and labels:
zebrafish embryos [1] = details: embryos incubated 24 to 72 hpf
Experimental: Zebrafish embryos were incubated in compounds from 24 hpf (hours post fertilization) to 72 hpf.
(§1) The testing protocols for these compounds are as follows: • a. To test the inhibition of pigment formation, the zebrafish embryos were treated with the drugs from 24 to 72 hours post-fertilization (hpf). The embryos were monitored and imaged throughout their development to track the development of melanin pigment relative to a control group to which water was administered (Protocol 1). • b. […] The embryos were again monitored and imaged throughout their development relative to a control group to which water was administered (Protocol 2). • c. Additionally, to test the ability of the pigment to recover after being treated with our drugs, all embryos were treated at 24 hpf with the chemicals until the 68 hpf or 72 hpf time period, then washed with water to remove the treatment. The embryos were again monitored and imaged throughout their development relative to a control group to which water was administered (Protocol 3). Comparison of Skin-Lightening Compounds
The black pigment (or melanin) is very easy to observe in zebrafish. In brief, adult zebrafish are taken to breed embryos. Morphologically normal embryos of 24 hours post fertilization (hpf) stage will be selected for incubation in the drugs from 24 to 72 hours. During the incubation, the embryos are monitored and imaged (see FIG. 1) to track the development of melanin. […] To broaden the comparison with other skin-lightening products, this project can also test other compounds, kojic acid, gallic acid, (2-Morpholinobutyl)-4-thiophenol/MoTP and Haginin/phenoxidiol. […] In the meantime, the whole organism context also allows us to examine the toxicological profile, if any, of these compounds. The same protocol is also used for the experiments using the melanoma forming zebrafish.

zebrafish embryos [2] = assay: Reduction of existing pigment in zebrafish embryos (Protocol 2); format: in vivo; details: embryos incubated from 48 hpf to 68 hpf
Experimental: Embryos were incubated in compounds from 48 hpf when some pigments already formed to 68 hpf.
as §1
Thus, we compared the compound effect on existing pigment using older embryos at 48 hpf. The embryos were again monitored and imaged throughout their development according to Protocol 2.

zebrafish embryos [3] = assay: Pigment recovery after chemical withdrawal (Protocol 3); format: in vivo; details: treated 24-72 hpf, washed, imaged 24 hours after wash
Experimental: FIG. 4 are photographs of the pigment recovery after chemical withdrawal. Zebrafish embryos were treated with skin lightening compounds from 24-72 hpf followed by several washes to remove the compounds then incubated in […]. Twenty four hours after wash, the embryos were imaged.
Comparison of Skin-Lightening Compounds
It has been reported that melanin usually reappears after the withdrawal of skin lightening products. We studied this question by treating fish embryos from 24-72 hpf, according to Protocol 3, to create strong pigment reduction then wash off the compounds and track the pigment recovery. […] A drug with the ability to permanently remove or inhibit pigment might pose a concern of causing vitiligo.

[4] = tested on: purified tyrosinase from mushroom; assay: In vitro tyrosinase assay (L-tyrosine to DOPAchrome, absorbance 490 nm); format: biochemical; details: absorbance at 490 nm at 20', 60' and 120' of reaction
Source text: The assay is set up by mixing purified tyrosinase from mushroom with L-tyrosine with or without test chemical. Active tyrosinase will turn L-tyrosine into DOPAchrome which is orange color. The absorbance at 490 nm which reflects the amount of DOPAchrome and thus the tyrosinase activity was taken at 20′, 60′ and 120′ of reaction.
Most of the current skin-lightening compounds reduce pigment by inhibiting the melanin synthesis enzyme called tyrosinase (FIG. 5). […] The assay is usually done by mixing purified tyrosinase from mushroom with L-tyrosine, which is the substrate of tyrosinase, and with or without test chemical. Reaction with active tyrosinase will quickly turn L-tyrosine into a color product called dopachrome which is an intermediate product in the melanin synthesis pathway. The amount of dopachrome can be measured by a spectrophotometer at A490 nm visible light.

zebrafish embryos [5] = assay: Apoptosis labeling in compound-treated embryos; format: in vivo; details: fluorescence/enzymatic labeling
Source text: FIGS. 7A-7B are photographs and an associated graph illustrating the cell death by skin lightening compounds. Embryos treated with skin lightening compounds were fixed and processed for enzymatic labeling for apoptosis.
Although it is rare, one compound MoTP was reported to cause cell death specifically in melanocyte. We tested whether other skin lightening compounds can also cause melanocyte cell death. Using a fluorescence labeling assay, we were able to detect the apoptotic cells. Although we were not able to specifically identify apoptotic melanocyte due to technical difficulties, we were able to evaluate the overall cell death in the compound treated embryos.

[6] = tested on: Mouse melanoma cell line B16-F10; assay: Mouse melanoma cell proliferation (cell count after 48 hours); format: cell-based
Source text: (§2) Mouse melanoma cell line B16-F10 is a commonly used mammalian cells for melanogenesis and melanocyte studies. […] MoTP. […] The two graphs on top are cell number per 0.5 cubic mm. The Y axis in the lower two graphs is absorbance of 490 nm visible light by melanin. Higher absorbance means more melanin.
(§3) In this experiment, we first seeded approximately the same number of cells in each well of the 24-well plate supplied with fresh complete growth medium with different skin lightening compound. After 48 hours of incubation, we counted the cell numbers to evaluate the cell proliferation and lysed the cells from additional identically set-up wells and measured the total amount of melanin in treated melanoma.

[7] = tested on: dct-expressing cells (melanocyte precursors); assay: In situ hybridization for dct-expressing cells; format: in vivo, zebrafish; details: cell counts
Source text: The cDNA of these genes was cloned and used to generate anti-sense RNA probes.
(§4) We also carried out qPCR to measure the dct mRNA expression.

dct mRNA = assay: Quantitative PCR of dct mRNA in treated embryos; format: in vivo, zebrafish; details: qPCR
Source text: as §4

[8] = tested on: Mouse melanoma cell line B16-F10; assay: Melanin content of mouse melanoma cells (absorbance 490 nm); format: cell-based; details: 48 hours
Source text: as §2, §3

Compound | inhibition of pigment formation (zebrafish embryos [1]) | overall efficacy of the skin-lightening effects (rank order) (zebrafish embryos [1]) | reduction of existing pigment (zebrafish embryos [2]) | pigment recovery after chemical withdrawal (zebrafish embryos [3]) | tyrosinase inhibition [4] | apoptosis / overall cell death in treated embryos (zebrafish embryos [5]) | cell proliferation ([6]; concentration not given) | number of dct+ cells [7] | dct mRNA expression (dct mRNA) | melanin synthesis / melanin amount ([8]; concentration not given) | apoptosis / overall cell death in treated embryos (zebrafish embryos [5]; listed as Niacinamide) | reduction of existing pigment (zebrafish embryos [2]; listed as Phenoxidiol) | cell proliferation ([6]; 40 uM) | melanin synthesis / melanin amount ([8]; 10 uM) | melanin synthesis / melanin amount ([8]; 40 uM) | cell proliferation ([6]; 100 mM)
(2-Morpholinobutyl)-4-thiophenol [MoTP] | strong pigmentation inhibition | PTU=phenoxidiol=A11=MoTP>Arbutin>Niacinamide>Tretinoin>kojic acid>gallic acid | moderately reduce existing pigment; also recorded: strong reduction of existing pigment | limited recovery | enhancement of tyrosinase activity | slightly higher level of apoptosis; also recorded: slight increase of apoptosis | killed all the melanoma cells; also recorded: significantly inhibit the melanocyte proliferation | – | – | – | – | – | – | – | – | –
N#CC(=C(N)Sc1ccccc1N)C(C#N)=C(N)Sc1ccccc1N [MEK-I] | – | – | – | – | – | – | didn't seem to have any effect on melanocyte proliferation | no effect on the number of dct expressing cells and not | no change in dct expression | not | – | – | – | – | – | –
NC(=O)c1cccnc1 [niacinamide, Niacinamide] | different degrees of pigment inhibition | PTU=phenoxidiol=A11=MoTP>Arbutin>Niacinamide>Tretinoin>kojic acid>gallic acid | – | – | – | significant apoptosis | – | – | – | not | large increase of apoptosis | – | – | – | – | –
Oc1ccc(C2=Cc3ccc(O)cc3OC2)cc1 [phenoxidiol, phenoxidiol/haginin] | strong pigmentation inhibition | PTU=phenoxidiol=A11=MoTP>Arbutin>Niacinamide>Tretinoin>kojic acid>gallic acid | strong in reducing existing pigment | not so | – | large increase of apoptosis; also recorded: significant apoptosis | – | fewer dct-positive cells; also recorded: significant lower number of dct+ cells | significantly lower expression of dct expression; also recorded: reduction of dct expression | – | – | strong reduction of existing pigment | – | – | – | –
COc1cc(O)cc(/C=C/Oc2ccccc2C)c1 [A11, 2-Methylphenyl-E-(3-hydroxy-5-methoxy)-styryl ether] | strong pigmentation inhibition | PTU=phenoxidiol=A11=MoTP>Arbutin>Niacinamide>Tretinoin>kojic acid>gallic acid | strong and quick pigment reduction; also recorded: strong in reducing existing pigment; also recorded: strong reduction of existing pigment | – | does not inhibit tyrosinase; also recorded: no inhibition at all | no significant cell death | – | fewer dct-positive cells; also recorded: significant lower number of dct+ cells | significantly lower expression of dct expression; also recorded: reduction of dct expression | – | – | – | slightly inhibited the melanoma cell proliferation; also recorded: significantly inhibit the melanocyte proliferation | no melanin reduction | slight reduction; also recorded: reduced | –
O=c1cc(CO)occ1O [kojic acid] | different degrees of pigment inhibition | PTU=phenoxidiol=A11=MoTP>Arbutin>Niacinamide>Tretinoin>kojic acid>gallic acid | minimal or no pigment reduction | – | strong inhibition | – | significantly inhibit the melanocyte proliferation | – | – | significant reduction of melanin | – | – | – | – | – | –
CC1=C(/C=C/C(C)=C/C=C/C(C)=C/C(=O)O)C(C)(C)CCC1 [tretinoin, Tretinoin] | different degrees of pigment inhibition | PTU=phenoxidiol=A11=MoTP>Arbutin>Niacinamide>Tretinoin>kojic acid>gallic acid | minimal or no pigment reduction | – | – | significant apoptosis | didn't seem to have any effect on melanocyte proliferation | – | – | significant reduction of melanin | – | – | – | – | – | –
O=C(O)c1cc(O)c(O)c(O)c1 [gallic acid] | different degrees of pigment inhibition | PTU=phenoxidiol=A11=MoTP>Arbutin>Niacinamide>Tretinoin>kojic acid>gallic acid | – | – | enhancement of tyrosinase activity | – | – | – | – | – | – | – | – | – | – | –
NC(=S)Nc1ccccc1 [PTU, phenylthiourea] | strong pigmentation inhibition | PTU=phenoxidiol=A11=MoTP>Arbutin>Niacinamide>Tretinoin>kojic acid>gallic acid | moderately reduce existing pigment | not so | strong inhibition | – | didn't seem to have any effect on melanocyte proliferation | no effect on the number of dct expressing cells | slightly increase of dct expression | significant reduction of melanin | – | – | – | – | – | –
OC[C@H]1O[C@@H](Oc2ccc(O)cc2)[C@H](O)[C@@H](O)[C@@H]1O [arbutin, Arbutin] | different degrees of pigment inhibition | PTU=phenoxidiol=A11=MoTP>Arbutin>Niacinamide>Tretinoin>kojic acid>gallic acid | moderately reduce existing pigment | – | strong inhibition | – | – | – | slightly increase of dct expression | significant reduction of melanin | – | – | – | – | – | significantly inhibit the melanocyte proliferation
